For test [1], the target named is 4D11 IgG. Description: SPR competition binding assay, mAb 4D11. The settings on record: read-out: Kd against 4D11 IgG. Details: species or system mouse. How it is done: (§1) Affinities for peptide epitopes and dimer peptides to 4D11 and 9H4 IgG were measured by surface plasmon resonance (SPR) (Biacore T200, GE Healthcare, Parramatta, Australia) using a competition assay method developed previously. First, 3D7 MSP2 was immobilised on a CM5 chip. To determine binding, eight three-fold dilutions of peptide, from 10 µM stock were added with 50 nM 4D11/9H4 IgG to compete with the immobilised antigen. A standard curve was established by flowing eight two-fold dilutions of 4D11 or 9H4 IgG from a 100 nM stock solution.
Following the MD simulations, each peptide was synthesised by standard Fmoc synthesis. Orthogonal protection of cysteines was used to ensure that the desired disulfide bond was formed, leaving a single free cysteine for conjugation to an appropriate carrier for immunisation. […] Consequently, disulfide bond formation and cyclisation coupling were performed in solution. To determine if the additions incorporated into the dimer sequence hindered binding to 4D11, SPR was used to measure their binding affinity to the mAb (Table 2). […] For immunisations, the commonly used carrier protein, keyhole limpet hemocyanin (KLH) was chosen. As conjugation to KLH required a free thiol, an additional cysteine residue was included in all of the peptides (Figure 2).

The test system of test [2] is biotinylated 13-residue peptides (A-I) spanning the C-terminal region of MSP2. Description: Fine specificity of antisera by peptide array ELISA (peptides A-I). It counts as in vivo, mouse. The note with it: individual sera of mice immunised with peptide-KLH conjugate or MSP2 mix, diluted 1:1000; indirect ELISA; peptides C-D span 9H4 epitope, E-G span 4D11 epitope. How it is done: Peptide was conjugated to maleimide-activated KLH (Sigma-Aldrich) following the manufacturer’s protocol. Briefly, 1 mg of each peptide was mixed with 1 mg KLH in the provided buffer for a 200-fold molar excess of peptide to carrier protein. The reaction mixture was degassed under nitrogen and mixed at room temperature (RT) for 2 h. Any unreacted peptide was removed by dialysis against PBS using a 10 kDa cut-off membrane. The extent of conjugation was determined using Ellman’s reagent. Peptide-KLH conjugate stock solution was stored at 4 °C until further use. Prior to immunisation, peptide-KLH conjugates were diluted to 1 mg/mL in PBS and formulated with Montanide ISA720 at an antigen:adjuvant ratio of 3:7 and a final concentration of 0.3 mg/mL. The 3D7 + FC27 MSP2 mix was formulated using 0.15 mg/mL of each allelic form. Female C57BL/6 mice (n = 6 per group) were inoculated subcutaneously with 100 µL containing 30 µg of antigen at weeks 0, 4 and 8, then euthanised at week 10. Sera were collected and stored at −80 °C.
To determine peptide-KLH binding to 4D11 and 9H4, Maxisorp 96-well microtitre plates (Nunc, Rochester, NY, USA) were coated overnight at 4 °C with 2 µg/mL peptide-KLH in PBS. The plates were blocked with 1% BSA in PBS for 1 h before adding 100 µL of 4D11 and 9H4 IgG in eleven half log10 serial dilutions starting from stock at 1 µg/mL. After 1 h incubation at 4 °C and washing, antigen-bound antibodies were detected with goat anti-mouse IgG (1:2000 dilution) and freshly prepared 2,2-azinobis(3-ethylbenzthiazolinesulfonic acid (ABTS) substrate (1 mm) in citric acid buffer, pH 4.2, containing […]. The absorbance was read at 405 nm using a microplate reader. For determination of peptide-specific antibody titres, peptide-BSA conjugate was coated on the plate at 2 µg/mL. Individual mouse sera were added at a starting dilution of 1000-fold with six half log10 serial dilutions. Endpoint titres were taken as the x-axis intercept of the dilution curve at an absorbance value of three standard deviations (s.d.) greater than OD405 for naïve mouse serum. The fine specificities of the antisera were determined by ELISA using an array of nine biotinylated 13-residue peptides (A-I), which overlap by 2 or 3 residues and spanned the C-terminal region of MSP2 [11, 13]. Maxisorp 96-well microtitre plates (Nunc) were coated overnight at 4 °C with 1 µg/mL streptavidin in PBS. The plates were blocked with 1% BSA in PBS for 2 h before adding 1:500 biotinylated peptides. Individual sera samples were diluted 1:1000 in blocking solution before addition to the peptide array. Antibody was detected with the same protocol as mentioned above.
To characterise the response against these dimeric peptides further, the specificity of the induced antibodies was determined by indirect ELISA using an array of nine biotinylated peptides that spanned the epitopes recognised by the 4D11 and 9H4 mAbs (peptides A-I) (Table 3). Peptides C and D spanned the 9H4 epitope, whilst peptides E to G spanned the 4D11 epitope. […] However, the response against MSP2 was largely dominated by a single mouse in the group.

For test [3], the system named is 3D7 merozoites. Description: Merozoite ELISA with pooled mouse sera, 3D7 merozoites. The format is in vivo, P. falciparum. The note with it: pooled sera of immunised mice, two-fold dilutions from 1:500; merozoites 1 × 10^7/well; OD 450 nm; rank order in words. How it is done:
The reactivity of mouse polyclonal antibodies with merozoites was determined by ELISA using merozoites from both the 3D7 and FC27 (D10 clone) strains of P. falciparum. The parasites were cultured in human erythrocytes at a haematocrit of 3% in RPMI media supplemented with […]. Viable merozoites were isolated as described previously. Highly synchronised late-stage schizonts were magnet-purified via a MACS magnet separation column (Miltenyi Biotec, Macquarie Park, Australia) and treated with E64 protease inhibitor (ThermoFisher Scientific, Scoresby, Australia) until mature merozoites were formed. Merozoites were released forcing them through a 1.2 µm filter.
Purified whole merozoites were resuspended in PBS supplemented with a cocktail of protease inhibitors (Roche, Castle Hill, Australia). Isolated merozoites were used to coat Nunc Maxisorp™ plates at 1 × 10^7/well and incubated overnight at 4 °C. The plates were then blocked with 1% casein in PBS at 37 °C for 2 h (or overnight at 4 °C). Pooled sera samples were added to wells at two-fold serial dilution in duplicate with a starting dilution of 1:500 and incubated at RT for 1 h. The plates were further incubated with HRP-conjugated goat anti-mouse IgG antibody diluted at 1:1000 in 0.1% casein in PBS at RT for 1 h. The plates were washed six times with PBS between each incubation step. Finally, 3,3′,5,5′-tetramethylbenzidine (TMB) substrate (Thermo Fisher Scientific, Scoresby, Australia) was added to the wells for the development of colour for 15 min and the reaction was stopped with 1 M sulfuric acid. The OD was measured at 450 nm.
The ability to induce an immune response that can recognise parasite MSP2 is essential in the design of an MSP2-based peptide vaccine. We isolated merozoites from both 3D7 and FC27 (D10 clone) strains of P. falciparum, coated them on ELISA plates and probed them with sera from the immunised mice (Figure 6). mAb 4D11 and the MSP2 mix pre-bleed were also included as positive and negative controls, respectively.

Test [4] deals with 9H4 IgG. Description: SPR competition binding assay, mAb 9H4. Details: species or system mouse. The note with it: SPR competition assay (Biacore T200); 3D7 MSP2 immobilised on CM5 chip; eight three-fold dilutions of peptide from 10 µM with 50 nM 9H4 IgG; alanine scan of 16-residue MSP2_207–222; read-out: Kd against 9H4 IgG. How it is done: as §1
In our previous work, the minimal epitope and key residues involved in 4D11 binding were defined as the 8-residue peptide 3D7-MSP2_215–222, with Lys216, Glu217 and Asn218 crucial for binding. To characterise the epitope of 9H4 and compare it with that of 4D11, the same alanine-scan peptides were used to probe 9H4 binding (Figure 1A,B). Affinities for 9H4 binding were measured by SPR, using a competition binding assay described previously.

The mark [5] stands for this setting: SPR competition binding assay, peptides for KLH conjugation (Table 2), 3D7 MSP2 on CM5 chip, 50 nM 4D11 IgG.
[6] abbreviates: SPR competition assay (Biacore T200), 3D7 MSP2 immobilised on CM5 chip, eight three-fold dilutions of peptide from 10 µM with 50 nM 4D11 IgG, alanine scan of 16-residue MSP2_207–222.

Results on five compounds are retold here after article PMC8402609, “Guiding the Immune Response to a Conserved Epitope in MSP2, an Intrinsically Disordered Malaria Vaccine Candidate” (Vaccines, 2021).

The term Kd denotes the constant that tells how readily two partners part at equilibrium.

Read-outs that look alike come from different tables or passages of the source. Where a SMILES comes first, the peptide text is derived from it. Bridges are numbered along the chain shown (N, C = ends).

Turning to `CC(=O)N[C@@H](CO)C(=O)N[C@@H](CCC(N)=O)C(=O)N[C@@H](CCCCN)C(=O)N[C@@H](CCC(=O)O)C(=O)N[C@H]1CSSC[C@@H](C(=O)NCC(=O)N[C@@H](C)C(=O)N[C@@H](C)C(=O)N[C@@H](CS)C(N)=O)NC(=O)[C@H](CC(N)=O)NC(=O)[C@H](CCC(=O)O)NC(=O)[C@H](CCCCN)NC(=O)[C@H](CC(N)=O)NC(=O)CNC(=O)[C@H](CC(=O)O)NC(=O)[C@H]([C@@H](C)O)NC1=O` [Peptide A1] (Ac-SQKECTDGNKENCGAAC-NH2; disulfide 5-13), the dissociation constant (Kd) in test [1] (setting [5]) turned out to be 200 nM. Besides, the “specificity of the induced antibodies (peptide array A-I)” value (“specificity of the induced antibodies” below) in test [2] was “primarily against peptides C and D”. For the same compound, the “reactivity of pooled sera with 3D7 merozoites” value (“reactivity of pooled sera” below) in test [3] is “followed by K209A, A1, C1 and L1”.
As for `C[C@@H]1NC(=O)CNC(=O)[C@@H]2CSSC[C@H](NC(=O)[C@H](CC(N)=O)NC(=O)[C@H](CCC(=O)O)NC(=O)[C@H](CCCCN)NC(=O)[C@H](CC(N)=O)NC(=O)CNC(=O)[C@H](C)NC1=O)C(=O)NCC(=O)N[C@@H](C)C(=O)N[C@@H](C)C(=O)N[C@@H](CS)C(=O)N[C@@H](CC(N)=O)C(=O)N[C@@H](CCCCN)C(=O)N[C@@H](CCC(=O)O)C(=O)N[C@@H](CC(N)=O)C(=O)N2` [Peptide C1] (cyclo(NKENCGAAGNKENCGAAC); disulfide 5-14), the Kd in test [1] (setting [5]) was 440 nM. Moreover, in test [2], the “specificity of the induced antibodies” value is listed as “almost exclusively directed to the 4D11 epitope”. Besides, the “reactivity of pooled sera” value in test [3] was “followed by K209A, A1, C1 and L1”.
As for `CC(=O)N[C@@H](CO)C(=O)N[C@@H](CCC(N)=O)C(=O)N[C@@H](C)C(=O)N[C@@H](CCC(=O)O)C(=O)N[C@H]1CSSC[C@@H](C(=O)NCC(=O)N[C@@H](C)C(=O)N[C@@H](C)C(N)=O)NC(=O)[C@H](CC(N)=O)NC(=O)[C@H](CCC(=O)O)NC(=O)[C@H](CCCCN)NC(=O)[C@H](CC(N)=O)NC(=O)CNC(=O)[C@H](CC(=O)O)NC(=O)[C@H]([C@@H](C)O)NC1=O` [Peptide K209A] (Ac-SQAECTDGNKENCGAA-NH2; disulfide 5-13), the dissociation constant (Kd) in test [4] stood at 7300 nM; in test [1] (setting [6]) it was 300 nM; in test [1] (setting [5]) it was 200 nM. Further, the “specificity of the induced antibodies” value in test [2] was “shifted antibody recognition towards the 4D11-specific epitope represented by peptides E and F”. The “reactivity of pooled sera” value in test [3] is “followed by K209A, A1, C1 and L1”.
In the case of `CC(=O)N[C@@H](CC(N)=O)C(=O)N[C@@H](CCCCN)C(=O)N[C@@H](CCC(=O)O)C(=O)N[C@@H](CC(N)=O)C(=O)N[C@H]1CSSC[C@@H](C(=O)NCC(=O)N[C@@H](C)C(=O)N[C@@H](C)C(=O)N[C@@H](CS)C(N)=O)NC(=O)[C@H](CC(N)=O)NC(=O)[C@H](CCC(=O)O)NC(=O)[C@H](CCCCN)NC(=O)[C@H](CC(N)=O)NC(=O)CNC(=O)[C@H](C)NC(=O)[C@H](C)NC(=O)CNC1=O` [Peptide L1] (Ac-NKENCGAAGNKENCGAAC-NH2; disulfide 5-14), the dissociation constant Kd in test [1] (setting [5]) was determined as 470 nM. In test [2], the “specificity of the induced antibodies” value was “almost exclusively directed to the 4D11 epitope”. Moreover, the “reactivity of pooled sera” value in test [3] was “followed by K209A, A1, C1 and L1”.
As for `CC(=O)N[C@@H](CO)C(=O)N[C@@H](CCC(N)=O)C(=O)N[C@@H](CCCCN)C(=O)N[C@@H](CCC(=O)O)C(=O)N[C@H]1CSSC[C@@H](C(=O)NCC(=O)N[C@@H](C)C(=O)N[C@@H](C)C(N)=O)NC(=O)[C@H](CC(N)=O)NC(=O)[C@H](CCC(=O)O)NC(=O)[C@H](CCCCN)NC(=O)[C@H](CC(N)=O)NC(=O)CNC(=O)[C@H](CC(=O)O)NC(=O)[C@H](C)NC1=O` [Peptide T212A] (Ac-SQKECADGNKENCGAA-NH2; disulfide 5-13), the dissociation constant Kd in test [4] is 4800 nM; in test [1] (setting [6]), 500 nM.
